# Experiments:
# [1] = tested on: cerebellar stem cells; assay: Astrocytic differentiation of cerebellar stem cells (GFAP positive cells); format: cell-based, rat; conditions: for % GFAP positive cells: Table 2 experiment
# Procedure: (§1) Drug treatments. Stem cells obtained as described above were treated with drugs and subjected to differentiation protocols in the second passage. Cells were plated at a density of 1×10^4 cells per well of a 12-well petridish (Falcon).
# Drug treatments were started on the next day. […] The WAY 100635 antagonist compound was used simultaneously with buspirone or serotonin in the blocking experiments. Positive and negative control cultures were those treated with BDNF and FGF alone, respectively.
# Cells were treated with the designated concentrations of drugs or combinations thereof, daily, and were fed every alternate day with fresh medium. Experiments were maintained for about 6–10 days in most cases. Cells were fixed on about day 7–11 with a 4% solution of para-formaldehyde (PFA) in PBS, prepared as follows:
# Immunofluorescent staining and visualization. After fixation, the PBS was aspirated from the fixed cells and the cells were treated with blocking solution (10% normal goat serum-NGS-Jackson Labs), 0.3% Triton-Sigma, in PBS) to saturate non-specific sites and permeabilize the cells. Following blocking, cells were incubated with the following designated primary antibodies diluted in 5% NGS for 1 hour at room temperatuare: mouse monoclonal anti-MAP-2 (Sigma): 1/250 dilution; mouse monoclonal anti-β tubulin III (Covance): 1/600 dilution; mouse anti-monoclonal glial fibrillary acidic protein (GFAP-ICN Biomedicals): 1/100 dilution.
# After the 1 hour incubation, cells were washed three times for 5 min each with PBS followed by incubation of a goat anti-mouse secondary antibody conjugated with stains Cy2 and Cy3 (Jackson Labs) for 1 hr at RT (dilution 1/100 as with the primary antibodies). Following three 5 minute washes with PBS, cells were incubated with the nuclear stain bis-benzimide (Sigma) for 10 min at RT. Cells were then washed 3 times with ultra-pure water and glass coverslips were mounted on them using AquaPolymount (Polysciences, Inc., PA) The mount was allowed to dry and the dishes were stored at 4° C.
# For visualization of staining, the mounted cells were viewed under a fluorescent microscope using the appropriate ultra violet filters. An eyepiece with an engraved grid was used to count the cells that stained positive for β tubulin III (TuJ-1), MAP2 or GFAP. The percent of cells positive for a given antigen was estimated by counting nuclei of all cells present in the same field, as the nuclei of the cells stain blue with the bis benzimide. Five fields were counted per treatment condition, and averages with standard deviations were calculated.
# To evaluate whether buspirone affected differentiation of neural stem cells into other neural cell types such as astrocytes, the buspirone-treated cerebellar cell cultures described above were subjected to immunofluorescence using a monoclonal antibody against an astrocyte-specific marker, glial fibrillary acidic protein, or GFAP.
# [2] = tested on: cerebellar stem cells; assay: Neuronal differentiation of cerebellar stem cells (TuJ1 positive cells); format: cell-based, rat
# Excerpt: Isolation and quantitation of cerebellar stem cells. Neural stem cells were isolated from rat embryos (obtained from Taconic) at the 19th day of gestation (E19). The rats were sacrificed by inhalation of excess carbon dioxide. The abdomen of the rat was cleaned with 70% ethanol and the uterus was removed quickly and aseptically on the bench top. The uterus was placed in ice cold PBS (GIBCO Cat. # 20012-027) in a 200-ml beaker.
# The cerebellar tissue was dissected under a microscope according to the following procedure and collected in a 15-ml tube containing HBSS on ice. The dissection should be completed in 1–2 hours (optimally) and the pH of the HBSS should remain neutral. First, the neck of the embryos was severed towards the bottom and the heads were collected in cold PBS. Next, the skin and scalp was removed from neck and head of the embryo. The brain, including the cerebral cortex, midbrain, cerebellum and some of the spinal cord, was removed by dissection under a microscope and transfered into a clean dish with fresh, cold PBS. The cerebellar region was dissected and cleaned of extraneous tissue, including removal of the meninges, and transferred into cold HBSS in a clean 15 ml tube.
# The tube containing the cerebellar tissue was centrifuged at 1,000 RPM for 2 min at 15 C., followed by slow, careful aspiration of the HBSS supernatant (care should be taken to avoid aspirating tissue). (It is best to limit the centrifugation steps as much as possible.) About 1 to 3 ml of DMEM/F12/N2 medium (see below) was immediately added to the remaining tissue; the volume of medium depends on the quantity of the dissected tissue. The tissue was gently triturated about 8 to 10 times using a P-1000 Pipetteman until the tissue was dissociated (as evidenced by cloudy solution), then the tube was incubated in the hood for 5 minutes at room temperature to permit settlement of small particles of undissociated tissue. The supernatant was then transferred into a fresh tube, taking care to avoid the smaller particles of tissue that remained at the bottom of the tube.
# Plating and expansion of cerebellar stem cells. The triturated cell suspension of E19 rat cerebellum was seeded into pre-coated 10 cm dishes at 2×10^6 cells per dish. This is denoted as the P0 culture (passage 0). The cells were grown in 5 ml of DMEM/F12/N2 supplemented with 25 mg/L insulin and 10 ng/ml bFGF at 37 C, 5% CO2 and 90% humidity.
# Cells were fed daily with 10 ng/ml bFGF. The medium was changed one day after the cells were seeded, and thereafter every other day. On about day 4 of the culture, or when cells reached 70% confluence, the culture was passaged (see “Passage of cerebellar stem cells” below) and seeded into 10 cm dishes at an initial density of 2×10^6 cells per dish. This is denoted as the P1 culture (passage 1). The passaged cells at P1 were grown in DMEM/F12/N2 medium supplemented with 25 mg/L insulin and 10 ng/ml bFGF. The medium was changed every other day.
# After two days of culture, some cells were passaged into a P2 culture, and some were seeded in 12-well tissue culture plates for experimental use. One ml of DMEM/F12/N2 medium was used per well of a 12-well plate at 2×10^4 cells per well. Experimental treatments were initiated the day after passage.
# as §1
# Drug treatments were started on the next day. […] The WAY 100635 antagonist compound was used simultaneously with buspirone or serotonin in the blocking experiments.
compound,measurement,setting,value
"O=C1CC2(CCCC2)CC(=O)N1CCCCN1CCN(c2ncccn2)CC1 [buspirone, 8-[4-[4-(2-pyrimidinyl)-1-piperazinyl]butyl]-8-azaspiro[4,5]decane-7,9-dione]",% GFAP positive cells,[1]; 10 nM,26.3 ± 3.7%
same,effect on astrocytic differentiation,"[1]; 30 nM to 1 μM, FIG. 1B and FIG. 4",does not have any appreciable reproducible effects
same,% GFAP positive cells,[1]; 30 nM,12.9 ± 1.9%
same,% GFAP positive cells,[1]; 100 nM,20.6 ± 5.2%
same,% GFAP positive cells,[1]; 300 nM,21.4 ± 4.6%
same,% GFAP positive cells,[1]; 1000 nM,27.0 ± 9.0%
same,% Tuj 1 positive cells,"[2]; 10 nM, Table 2 experiment",40.0 ± 3.7%
same,% Tuj 1 positive cells,"[2]; 10 nM, Table 3 experiment",30.7 ± 2.33%
same,% Tuj 1 positive cells,"[2]; 30 nM, Table 2 experiment",41.2 ± 6.7%
same,% Tuj 1 positive cells,"[2]; 30 nM, Table 3 experiment",37.4 ± 2.6%
same,% Tuj 1 positive cells,"[2]; 100 nM, Table 2 experiment",33.1 ± 2.6%
same,% Tuj 1 positive cells,"[2]; 100 nM, Table 3 experiment",46.6 ± 3.8%
same,% TuJ1 positive cells,"[2]; 100 nM, Table 5 experiment",54.4 ± 2.1%
same,% Tuj 1 positive cells,"[2]; 300 nM, Table 2 experiment",26.1 ± 3.9%
same,% TuJ1 positive cells,"[2]; 500 nM, Table 4 experiment",56.8 ± 7.1%
same,% TuJ1 positive cells,"[2]; 500 nM, Table 5 experiment",64.8 ± 2.1%
same,% Tuj 1 positive cells,"[2]; 1000 nM, Table 2 experiment",21.9 ± 3.9%
same,% Tuj 1 positive cells,"[2]; 1000 nM, Table 3 experiment",40.3 ± 2.8%
same,% TuJ1 positive cells,"[2]; 10 μM, Table 5 experiment",67.9 ± 10.2%
same,% TuJ1 positive cells,"[2]; 100 μM, Table 5 experiment",68.5 ± 6.5%
same,concentration inducing the highest percentage of neuronal differentiation,"[2]; FIG. 1, lane 4",~100 nM
same,"neuronal differentiation of neural stem cells (percent of neurons, TuJ1 positive)","[2]; FIG. 1, lanes 2–5, dosage range 10 nM to 300 nM, about 6 days",40–55%
same,differentiation of neurons,"[2]; FIG. 2, lane 3, buspirone 500 nM, untreated control less than 20%",50%
same,promotion of neuronal differentiation of neural stem cells (in words),"[2]; concentrations from 10 nm to 100 um, Tables 2–5",effective at promoting neuronal differentiation

# From US7132287B2, “Method for neural stem cell differentiation using 5HT-1A agonists” (Psychiatric Genomics, Inc., priority 2001, dated 2006)
